Test results published in patent publication US9981940B2, “Aryl sulfide derivatives and aryl sulfoxide derivatives as acaricides and insecticides” (BAYER CROPSCIENCE AKTIENGESELLSCHAFT, priority 2013, dated 2018).

Assays:
[1] = log P by HPLC (OECD Guideline 117), method [a] acidic range; type: physicochemical; conditions: for logP[a]: HPLC, method [a] acidic range; for chromatographic logP: reversed-phase C18 HPLC column, acidic range
Experimental: (§1) The log P values were determined analogously to OECD Guideline 117 (EC Directive 92/69/EEC) by HPLC (high-performance liquid chromatography) using reversed-phase columns (C 18), by the following methods:
[a] The LC-MS determination in the acidic range is effected at pH 2.7 with 0.1% aqueous formic acid and acetonitrile (contains 0.1% formic acid) as eluents; linear gradient from 10% acetonitrile to 95% acetonitrile.

[2] = test system: Tetranychus urticae; assay: Tetranychus urticae spray test, OP-resistant (TETRUR); type: in vivo; conditions: application rate of 500 g/ha, after 6 days; for pest or weed control at 500 g/ha: Tetranychus urticae, 144 h, read-out: efficacy
Summary of the method: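 Mortality as % efficacy (0% = no mites killed) read 6 days after spraying. Formulation: active ingredient in acetone/dimethylformamide plus emulsifier, diluted with emulsifier-containing water, applied to Phaseolus vulgaris leaf discs carrying every life stage of OP-resistant spider mites.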

[3] = log P by HPLC (OECD Guideline 117), method [b] neutral range; type: physicochemical; conditions: HPLC; for logP[b]: method [b] neutral range; for chromatographic logP: reversed-phase C18 HPLC column, neutral range, pH 7.8
Experimental: as §1
[b] The LC-MS determination in the neutral range is effected at pH 7.8 with 0.001 molar aqueous ammonium hydrogencarbonate solution and acetonitrile as eluents; linear gradient from 10% acetonitrile to 95% acetonitrile.

[4] = pH 2.7, HPLC method [a], read-out: logP[a]
[5] = pH 2.7, HPLC, pH 2.7, read-out: log P[a]

| SMILES | logP[a] [1] | efficacy [2] | logP[b] [3] | chromatographic logP [1, 4] | chromatographic logP [1, 5] | pest or weed control at 500 g/ha [2] | chromatographic logP [3] |
| --- | --- | --- | --- | --- | --- | --- | --- |
| CCC(C)c1nn(-c2cc(SCC(F)(F)F)c(C)cc2F)c(=O)n1C1CC1 (stereo not drawn) [Example 85] | 4.01 | 100% | 3.94 |  |  |  |  |
| C=CCn1c(OC)nn(-c2cc(SCC(F)(F)F)c(C)cc2F)c1=O [Example 182] | 3.30 | 100% | 3.24 |  |  |  |  |
| C=CCSc1nn(-c2cc(SCC(F)(F)F)c(C)cc2F)c(=O)n1C1CC1 [Example 425] | 4.10 | 100% | 4.01 |  |  |  |  |
| Cc1cc(F)c(-n2nc(C3CC3)n(C)c2=O)cc1[S+]([O-])CC(F)(F)F (racemic) [Example 352] | 1.99 | 90% | 1.96 |  |  |  |  |
| CCn1c(C(F)(F)F)nn(-c2cc(SCC(F)(F)F)c(C)cc2Cl)c1=O [Example 50] | 4.14 | 100% | 4.07 |  |  |  |  |
| Cc1cc(C)c(-n2nnn(C(C)C)c2=O)cc1SCC(F)(F)F [Example 298] | 3.81 | 100% | 3.78 |  |  |  |  |
| CCOCc1nn(-c2cc(SCC(F)(F)F)c(C)cc2F)c(=O)n1C1CC1 [Example 73] | 3.33 | 90% | 3.27 |  |  |  |  |
| Cc1cc(F)c(-n2nc(SC(F)(F)F)n(C)c2=O)cc1[S+]([O-])CC(F)(F)F (racemic) [Example 284] | 2.65 | 100% | 2.60 |  |  |  |  |
| Cc1cc(F)c(-n2nc(CC(C)C)n(C3CC3)c2=S)cc1SCC(F)(F)F [Example 493] | 4.44 | 100% | 4.35 |  |  |  |  |
| CCCCOc1nn(-c2cc(SCC(F)(F)F)c(C)cc2F)c(=O)n1C [Example 128] | 4.11 | 90% | 3.95 |  |  |  |  |
| Cc1cc(F)c(-n2nc([S+]([O-])C(C)C)n(C3CC3)c2=O)cc1[S+]([O-])CC(F)(F)F (stereo not drawn) [Example 239] | 2.08 | 100% | 2.03 |  |  |  |  |
| COCc1nn(-c2cc(SCC(F)(F)F)c(C)cc2F)c(=O)n1C1CC1 [Example 46] | 2.91 | 90% | 2.90 |  |  |  |  |
| CCOc1nn(-c2cc([S+]([O-])CC(F)(F)F)c(C)cc2F)c(=O)n1CC (stereo not drawn) [Example 409] | 2.44 | 90% | 2.44 |  |  |  |  |
| Cc1cc(F)c(-n2nc(OC3CCCCC3)n(C)c2=O)cc1SCC(F)(F)F [Example 153] | 4.50 | 100% | 4.44 |  |  |  |  |
| Cc1cc(F)c(-n2nc(C(C)(C)C)n(C3CC3)c2=O)cc1SCC(F)(F)F [Example 63] | 4.17 | 100% | 4.11 |  |  |  |  |
| Cc1cc(F)c(-n2nc(C3CC3)n(N(C)C)c2=O)cc1[S+]([O-])CC(F)(F)F (stereo not drawn) [Example 197, 5-Cyclopropyl-4-(dimethylamino)-2-{2-fluoro-4-methyl-5-[(2,2,2-trifluoroethyl)sulphinyl]phenyl}-2,4-dihydro-3H-1,2,4-triazol-3-one] |  |  |  | 2.6 | 2.6 | 100% | 2.59 |

| SMILES | logP[a] [1] | efficacy [2] | logP[b] [3] | chromatographic logP [1, 4] | chromatographic logP [1, 5] | pest or weed control at 500 g/ha [2] | chromatographic logP [3] |
| --- | --- | --- | --- | --- | --- | --- | --- |
| CNn1c(C2CC2)nn(-c2cc(SCC(F)(F)F)c(C)cc2F)c1=O [Example 199] | 3.15 | 100% | 3.07 |  |  |  |  |
| Cc1cc(F)c(-n2ncn(C(C)C)c2=O)cc1[S+]([O-])CC(F)(F)F (stereo not drawn) [Example 6, 2-{2-Fluoro-4-methyl-5-[(2,2,2-trifluoroethyl)sulphinyl]phenyl}-4-isopropyl-2,4-dihydro-3H-1,2,4-triazol-3-one] |  |  |  | 1.88 | 1.88 | 80% | 2.02 |
| Cc1cc(F)c(-n2nc(C3CC3)n(N(C)C)c2=O)cc1SCC(F)(F)F [Example 195, 5-Cyclopropyl-4-(dimethylamino)-2-{2-fluoro-4-methyl-5-[(2,2,2-trifluoroethyl)sulphanyl]phenyl}-2,4-dihydro-3H-1,2,4-triazol-3-one] |  |  |  | 3.75 | 3.75 | 100% | 3.73 |
| Cc1nn(-c2cc([S+]([O-])CC(F)(F)F)c(C)cc2F)c(=O)o1 (stereo not drawn) [Example 451, 3-{2-Fluoro-4-methyl-5-[(2,2,2-trifluoroethyl)sulphinyl]phenyl}-5-methyl-1,3,4-oxadiazol-2(3H)-one] |  |  |  | 1.99 | 1.99 | 90% | 2.02 |
| Cc1cc(F)c(-n2nc(SCc3ccccc3)n(C)c2=O)cc1SCC(F)(F)F [Example 286] | 4.12 | 100% | 4.03 |  |  |  |  |
| Cc1cc(F)c(-n2ccn(C(C)(C)C)c2=O)cc1[S+]([O-])CC(F)(F)F (stereo not drawn) [Example 489] | 2.50 | 90% | 2.47 |  |  |  |  |
| Cc1cc(F)c(-n2nc(C3CCCCC3)n(C3CC3)c2=O)cc1[S+]([O-])CC(F)(F)F (stereo not drawn) [Example 361] | 3.34 | 100% | 3.31 |  |  |  |  |
| C=CCn1c(SCCC)nn(-c2cc(SCC(F)(F)F)c(C)cc2F)c1=O [Example 427] | 4.45 | 90% | 4.37 |  |  |  |  |
| Cc1cc(F)c(-n2nc(C(F)(F)F)n(C)c2=O)cc1[S+]([O-])CC(F)(F)F (stereo not drawn) [Example 12, 2-{2-Fluoro-4-methyl-5-[(2,2,2-trifluoroethyl)sulphinyl]phenyl}-4-methyl-5-(trifluoromethyl)-2,4-dihydro-3H-1,2,4-triazol-3-one] |  |  |  | 2.52 | 2.52 | 100% | 2.46 |
| CCCOc1nn(-c2cc(SCC(F)(F)F)c(C)cc2F)c(=O)n1C1CC1 [Example 113] | 4.00 | 90% | 3.92 |  |  |  |  |
| CCCSc1nn(-c2cc(SCC(F)(F)F)c(C)cc2F)c(=O)n1CC [Example 288] | 3.18 | 100% | 3.13 |  |  |  |  |
| CCC[S+]([O-])c1nn(-c2cc([S+]([O-])CC(F)(F)F)c(C)cc2F)c(=O)n1C1CC1 (stereo not drawn) [Example 237] | 2.14 | 100% | 2.08 |  |  |  |  |
| CCOCc1nn(-c2cc(SCC(F)(F)F)c(C)cc2F)c(=S)n1C1CC1 [Example 500] | 3.82 | 100% | 3.77 |  |  |  |  |
| COc1cc(F)c(-n2nc(OCC(C)(C)C)n(C3CC3)c2=O)cc1[S+]([O-])CC(F)(F)F (stereo not drawn) [Example 403] | 3.50 | 100% | 3.44 |  |  |  |  |
| Cc1cc(F)c(-n2nc(S(C)(=O)=O)n(C)c2=O)cc1[S+]([O-])CC(F)(F)F (stereo not drawn) [Example 421, 2-{2-Fluoro-4-methyl-5-[(2,2,2-trifluoroethyl)sulphinyl]phenyl}-4-methyl-5-(methylsulphonyl)-2,4-dihydro-3H-1,2,4-triazol-3-one] |  |  |  | 1.88 | 1.88 | 100% | 1.84 |
| Cc1cc(F)c(-n2nc([S+]([O-])CC3CC3)n(C)c2=O)cc1[S+]([O-])CC(F)(F)F (stereo not drawn) [Example 248] | 2.03 | 100% | 1.98 |  |  |  |  |
